In patent US8071651B2, “5-amino-4-hydroxy-7-(imidazo [1,2-A] pyridin-6-ylmethyl)-8-methyl-nonamide derivatives and related compounds as renin inhibitors for the treatment of hypertension” (Novartis AG, priority 2005, dated 2011):

The molecules below were run against T1, renin (Homo sapiens, UniProt P00797) (assay: in vitro test of Nussberger et al.: formation of angiotensin I in human plasma, determined by radio-immunoassay). Conditions: concentration of inhibitor which reduces the formation of angiotensin I in human plasma by 50%.
T1 construct: This test measures the formation of angiotensin I in human plasma; from tissue; host or cells: human plasma
T1 sequence (P00797 67-406): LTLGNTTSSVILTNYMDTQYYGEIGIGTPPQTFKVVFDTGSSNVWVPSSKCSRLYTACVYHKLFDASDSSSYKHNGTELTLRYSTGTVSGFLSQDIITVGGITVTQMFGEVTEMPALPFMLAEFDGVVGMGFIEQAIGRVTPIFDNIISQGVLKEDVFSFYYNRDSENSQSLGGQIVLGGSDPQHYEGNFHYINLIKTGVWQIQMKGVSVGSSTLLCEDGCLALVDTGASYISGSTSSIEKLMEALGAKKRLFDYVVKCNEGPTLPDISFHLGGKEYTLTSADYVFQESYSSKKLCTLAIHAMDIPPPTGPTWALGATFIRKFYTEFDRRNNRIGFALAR
Format: biochemical
Description: The effect of renin inhibitors is detected inter alia experimentally by means of in vitro tests where the reduction in the formation of angiotensin I is measured in various systems (human plasma, purified human renin together with synthetic or natural renin substrate). The following in vitro test of Nussberger et al. (1987) J. Cardiovascular Pharmacol., Vol. 9, pp. 39-44, is used, inter alia. This test measures the formation of angiotensin I in human plasma. The amount of angiotensin I formed is determined in a subsequent radio-immunoassay. The effect of inhibitors on the formation of angiotensin I is tested in this system by adding various concentrations of these substances. The IC50 is defined as the concentration of the particular inhibitor which reduces the formation of angiotensin I by 50%. The compounds of the present invention show inhibitory effects in the in vitro systems at minimal concentrations of about 10^−6 to about 10^−10 mol/l.
For `COCCCCc1cc(CC(CC(N)C(O)CC(C(=O)NCC2CCOCC2)C(C)C)C(C)C)cc(C)n1` (centres unmarked) [Example 32JJJ], the IC50 was 2.6 nM. In the case of `COCCCCc1cc(CC(CC(N)C(O)CC(C(=O)NCC2C3COCC23)C(C)C)C(C)C)cnc1OC` (centres unmarked) [Example 36BBBB], the IC50 is reported as 4.8 nM. `COCCCCc1cc(CC(CC(N)C(O)CC(C(=O)NC2C3COCC32)C(C)C)C(C)C)cnc1OC` (centres unmarked) [Example 36DDDD] was tested, and the IC50 was 3.1 nM. `COCCCCc1cc(CC(CC(N)C(O)CC(C(=O)NCC2CC23CCOCC3)C(C)C)C(C)C)cnc1OC` (centres unmarked) [Example 36HHHH] gave an IC50 of 2.9 nM. `COCCCCc1cc(CC(CC(N)C(O)CC(C(=O)NCC2CC23CCOCC3)C(C)C)C(C)C)cnc1OC` (centres unmarked) [Example 36IIII] was tested, and the IC50 was 3.5 nM.
